Earlier results on one compound are cited in patent EP1964550A1, “Glucocorticoid-nitrooxyderivative compositions” (NicOx S.A., priority 2007, dated 2008).

For the data set, the system named is irritant acute dermatitis. The following applies: oedema formation and recruitment of leukocytes evaluated; compared with parent compound hydrocortisone.

Consider `C[C@]12CCC(=O)C=C1CC[C@@H]1[C@@H]2[C@@H](O)C[C@@]2(C)[C@H]1CC[C@]2(O)C(=O)COC(=O)c1ccc(CO[N+](=O)[O-])cc1` [hydrocortisone 21-[4'-(nitrooxymethyl)benzoate]], for which the anti-inflammatory activity entry is “higher anti-inflammatory activity than the parent compound hydrocortisone”.
